Experimental data taken from patent publication US8802708B2 (priority 2004, dated 2014).
Several values for one entry are separate records, joined by “and”; a condition that tells them apart may be missing. Equal values may be shown once. Read-outs that look alike come from different tables or passages of the source.

Experiments:
downy mildew [1] = assay: Cucumber downy mildew treating effect test (Test Example 1, Compound No. 1 with other fungicides); format: in vivo, cucumber (variety: Sagami Hanjiro)
Protocol: A cucumber (variety: Sagami Hanjiro) was cultivated in a plastic pot of 7.5 cm in diameter, and when it reached the bifoliate stage, a spore suspension of downy mildew was spray-inoculated thereto. Each of the liquids to be tested was sprayed thereto 17 hours thereafter using a spray gun at a ratio of 5 ml per seedling. In addition, the above-described Compound No. 1 liquid was also sprayed in the same manner. After keeping in a constant temperature chamber at 22 to 24° C. for 6 days, area of the lesion on the first leaf was inspected to calculate lesion area ratio (%), with the results shown in Table 3 and Table 4. In addition, each of the theoretical values of the infection ratio calculated based on the Colby's formula is also shown by the parentheses in Table 3 and Table 4.

late blight fungus = format: in vivo, tomato (variety: Ponderosa); settings: for synergistic effect in mixed use with Compound No. 1: within the same concentration range as the preceding table
downy mildew [2] = assay: Cucumber downy mildew treating effect test (Reference Example, Compound No. 1 with spreaders); format: in vivo, cucumber (variety: Sagami Hanjiro); settings: no mixed use of spreader
Protocol: An effect reinforcing component was dispersed in water to a concentration of from 1,000 times to 10,000 times, and then the above-described Compound No. […] In this case, the spreaders shown in Table 1 and Table 2 were used as the effect reinforcing components. In addition, for the sake of comparison, a predetermined concentration (63 ppm or 16 ppm) of Compound No. 1 liquid containing no effect reinforcing component was prepared in the same manner as the above-described water dispersion.
A cucumber (variety: Sagami Hanjiro) was cultivated in a plastic pot of 7.5 cm in diameter, and when it reached the bifoliate stage, a spore suspension of downy mildew was spray-inoculated thereto. Each of the water dispersions to be tested was sprayed thereto 17 hours thereafter using a spray gun at a ratio of 5 ml per seedling. In addition, the above-described Compound No. 1 liquid was also sprayed in the same manner. After keeping in a constant temperature chamber at 22 to 24° C. for 6 days, area of the lesion on the first leaf was inspected to calculate lesion area ratio (%), with the results shown in Table 1 and Table 2. In addition, each of the theoretical values of the infection ratio calculated based on the Colby's formula was also shown by the parentheses in Table 1 and Table 2. In this connection, results similar to those which are shown in Table 1 and Table 2 are obtained within the same concentration range when a liquid comprising the Compound No. 1 and at least one selected from the group consisting of Dimethomorph, Chlorothalonil, a copper compound, Iprovalicarb, Zoxamide, phosphorous acid or a salt thereof, Fluazinam, Cyazofamid, Flumorph, Benthiavalicarb-isopropyl, Ethaboxam, Methalaxyl-M and Benalaxyl-M was used instead of the Compound No. 1 liquid.

[3] = other fungicide alone 25 g/ha, 300 liters per hectare
[4] = other fungicide alone 100 g/ha, 300 liters per hectare
[5] = other fungicide alone 250 g/ha, 300 liters per hectare
[6] = other fungicide alone 250 ppm (Compound No. 1 0 ppm)
[7] = other fungicide alone 200 ppm (Compound No. 1 0 ppm)

[Cl-].[Cu+2].[Cu+2].[OH-].[OH-].[OH-] [Basic copper chloride, basic copper chloride]
lesion area ratio (downy mildew [1]; other fungicide alone 1,000 ppm (Compound No. 1 0 ppm)): 100%
lesion area ratio (late blight fungus; other fungicide alone 500 ppm, sprayed at 10 ml per seedling): 100%
lesion area ratio (late blight fungus; other fungicide alone 1,000 ppm, sprayed at 10 ml per seedling): 100%

COC(=O)[C@@H](C)N(C(=O)Cc1ccccc1)c1c(C)cccc1C [Benalaxyl-M]
lesion area ratio (late blight fungus; [3]): 50.0%
lesion area ratio (late blight fungus; [4]): 25.0%
lesion area ratio (late blight fungus; [5]): 6.25%

CC(C)OC(=O)N[C@H](C(=O)N[C@H](C)c1nc2ccc(F)cc2s1)C(C)C [Benthiavalicarb-isopropyl]
synergistic effect in mixed use with Compound No. 1 (late blight fungus): Synergistic effect can also be obtained

N#Cc1c(Cl)c(Cl)c(Cl)c(C#N)c1Cl [Chlorothalonil]
lesion area ratio (downy mildew [1]; other fungicide alone 500 ppm (Compound No. 1 0 ppm)): 100%
lesion area ratio (late blight fungus; other fungicide alone 13 ppm, sprayed at 10 ml per seedling): 100%
lesion area ratio (late blight fungus; other fungicide alone 25 ppm, sprayed at 10 ml per seedling): 17%
lesion area ratio (late blight fungus; [4]): 18.8%
lesion area ratio (late blight fungus; [5]): 25.0%

Cc1c(Br)c2ccc(F)cc2n1S(=O)(=O)c1ncn(S(=O)(=O)N(C)C)n1 [Compound No. 1, 1-(N,N-dimethylsulfamoyl)-3-(3-bromo-6-fluoro-2-methylindol-1-yl)sulfonyl-1,2,4-triazole]
lesion area ratio (downy mildew [2]; Compound No. 1 4 ppm): 30%
lesion area ratio (downy mildew [2]; Compound No. 1 16 ppm): 60%
lesion area ratio (downy mildew [2]; Compound No. 1 63 ppm): 40%
lesion area ratio (downy mildew [1]; Compound No. 1 4 ppm, no mixed use of other fungicide): 30%
lesion area ratio (downy mildew [1]; Compound No. 1 16 ppm, no mixed use of other fungicide): 60%
lesion area ratio (downy mildew [1]; Compound No. 1 63 ppm, no mixed use of other fungicide): 40%
lesion area ratio (late blight fungus; Compound No. 1 1 ppm, no mixed use of other fungicide, sprayed at 10 ml per seedling): 83%
lesion area ratio (late blight fungus; Compound No. 1 alone 25 g/ha, 300 liters per hectare): 62.5% and 37.5%
lesion area ratio (late blight fungus; Compound No. 1 alone 250 g/ha, 300 liters per hectare): 31.3% and 25.0% and 37.5%

[Cu+2].[OH-].[OH-] [Cupric hydroxide, cupric hydroxide]
lesion area ratio (late blight fungus; other fungicide alone 200 g/ha, 300 liters per hectare): 50.0%
lesion area ratio (late blight fungus; other fungicide alone 800 g/ha, 300 liters per hectare): 43.3%
lesion area ratio (late blight fungus; other fungicide alone 2000 g/ha, 300 liters per hectare): 43.8%

Cc1ccc(-c2c(Cl)nc(C#N)n2S(=O)(=O)N(C)C)cc1 [Cyazofamid]
lesion area ratio (late blight fungus; other fungicide alone 10 g/ha, 300 liters per hectare): 25.0%
lesion area ratio (late blight fungus; other fungicide alone 40 g/ha, 300 liters per hectare): 18.8%

COc1ccc(C(=CC(=O)N2CCOCC2)c2ccc(Cl)cc2)cc1OC [Dimethomorph]
lesion area ratio (downy mildew [1]; [6]): 100%
lesion area ratio (downy mildew [1]; other fungicide alone 350 ppm (Compound No. 1 0 ppm)): 100%
lesion area ratio (late blight fungus; [3]): 87.5%
lesion area ratio (late blight fungus; [4]): 75.0%
lesion area ratio (late blight fungus; [5]): 62.5%

CCNc1nc(CC)c(C(=O)NC(C#N)c2cccs2)s1 (centres unmarked) [Ethaboxam]
lesion area ratio (downy mildew [1]; [7]): 30%
lesion area ratio (late blight fungus; [3]): 6.25%
lesion area ratio (late blight fungus; [4]): 6.25%

O=[N+]([O-])c1cc(C(F)(F)F)c(Cl)c([N+](=O)[O-])c1Nc1ncc(C(F)(F)F)cc1Cl [Fluazinam]
lesion area ratio (late blight fungus; [4]): 37.5%
lesion area ratio (late blight fungus; [5]): 37.5%

COc1ccc(/C(=C\C(=O)N2CCOCC2)c2ccc(F)cc2)cc1OC [Flumorph]
lesion area ratio (late blight fungus; [4]): 31.3%
lesion area ratio (late blight fungus; [5]): 12.5%

Cc1ccc(C(C)NC(=O)[C@@H](NC(=O)OC(C)C)C(C)C)cc1 (some centres unmarked) [Iprovalicarb]
lesion area ratio (downy mildew [1]; [6]): 100%
lesion area ratio (late blight fungus; [3]): 25.0%
lesion area ratio (late blight fungus; [4]): 6.25%
lesion area ratio (late blight fungus; [5]): 6.25%

COCC(=O)N(c1c(C)cccc1C)[C@H](C)C(=O)OC [Metalaxyl-M]
synergistic effect in mixed use with Compound No. 1 (late blight fungus): Synergistic effect can also be obtained

O=[PH]([O-])[O-].[K+].[K+] [Potassium phosphite, potassium phosphite (K2HPO3)]
lesion area ratio (downy mildew [1]; [6]): 100%

CCCOC(=O)NCCCN(C)C [Propamocarb]
lesion area ratio (downy mildew [1]; other fungicide alone 1,600 ppm (Compound No. 1 0 ppm)): 60%
lesion area ratio (late blight fungus; [4]): 87.5%
lesion area ratio (late blight fungus; other fungicide alone 400 g/ha, 300 liters per hectare): 75.0%

O=[PH]([O-])[O-].[Na+].[Na+] [Sodium phosphite, sodium phosphite (Na2HPO3)]
lesion area ratio (late blight fungus; other fungicide alone 500 g/ha, 300 liters per hectare): 75.0%
lesion area ratio (late blight fungus; other fungicide alone 1000 g/ha, 300 liters per hectare): 75.0%
lesion area ratio (late blight fungus; other fungicide alone 1500 g/ha, 300 liters per hectare): 50.0%

CCC(C)(NC(=O)c1cc(Cl)c(C)c(Cl)c1)C(=O)CCl (centres unmarked) [Zoxamide]
lesion area ratio (downy mildew [1]; [7]): 100%
lesion area ratio (late blight fungus; [3]): 43.8%
lesion area ratio (late blight fungus; [4]): 50.0%
